# Assay results taken from PMC6222422, “Synthesis and Biological Evaluation of Novel Indole-Derived Thioureas” (Molecules : A Journal of Synthetic Chemistry and Natural …, 2018).
# Columns and labels:
# HSV-1 = experiment: microbe, parasite or virus in culture; format: cell-based, human herpes 1; details: Human alphaherpesvirus 1, Vero 76, read-out: HSV-1 EC50
# Reo-1 = experiment: microbe, parasite or virus in culture; format: cell-based, reovirus type-1; details: Reovirus sp., BHK, read-out: Reo-1 EC50
# HIV-1 = experiment: microbe, parasite or virus in culture; details: Human immunodeficiency virus 1, MT4, read-out: HIV-1 EC50
# VSV = experiment: microbe, parasite or virus in culture; format: cell-based; details: Vesicular stomatitis virus, Vero 76, read-out: VSV EC50
# YFV = experiment: microbe, parasite or virus in culture; format: cell-based; details: Yellow fever virus, BHK, read-out: YFV EC50
# Cytotoxicity, MTT method [1] = details: human
# RSV = experiment: microbe, parasite or virus in culture; format: cell-based, human respiratory syncytial virus; details: for EC50: human respiratory syncytial virus, Vero 76, read-out: RSV EC50
# Cytotoxicity, MTT method [2] = details: African green monkey (Cercopithecus aethiops)
# CV-B5 = experiment: microbe, parasite or virus in culture; format: cell-based, coxsackievirus B5; details: Enterovirus B, CVB5, Vero 76, read-out: CV-B5 EC50
# VV = experiment: microbe, parasite or virus in culture; format: cell-based; details: Orthopoxvirus vaccinia, Vero 76, read-out: VV EC50
# BVDV = experiment: microbe, parasite or virus in culture; format: cell-based, bovine viral diarrhoea virus; details: Bovine viral diarrhea virus isolates and strains, MDBK, in Bos taurus, read-out: BVDV EC50
# Cytotoxicity, MTT method [3] = details: cattle (Bos taurus)
# Sb-1 = experiment: microbe, parasite or virus in culture; format: cell-based, poliovirus type-1; details: Enterovirus C, Vero 76, read-out: Sb-1 EC50
# Cytotoxicity, MTT method [4] = details: Syrian hamster (Mesocricetus auratus)
# B. cereus ATCC 11778 [5] = experiment: MIC, twofold serial agar dilution; format: cell-based; details: Bacillus cereus, ATCC11778, 18 h, 35 °C, read-out: minimal inhibitory concentrations (MIC)
# in vitro [6] = details: cattle (Bos taurus)
# M. luteus ATCC 10240 [7] = experiment: disc diffusion method; format: cell-based, Micrococcus luteus; details: Micrococcus luteus, ATCC10240, applied 400 µg per disc, dash = lack of the growth inhibition area, read-out: diameter of growth inhibitory zone (GIZ)
# S. aureus ATCC 6538 [8] = experiment: disc diffusion method; format: cell-based, Staphylococcus aureus; details: Staphylococcus aureus, ATCC6538, applied 400 µg per disc, dash = lack of the growth inhibition area, read-out: diameter of growth inhibitory zone (GIZ)
# in vitro [9] = details: African green monkey (Cercopithecus aethiops)
# S. aureus NCTC 4163 [10] = experiment: disc diffusion method; format: cell-based, Staphylococcus aureus; details: Staphylococcus aureus, NCTC4163, applied 400 µg per disc, dash = lack of the growth inhibition area, read-out: diameter of growth inhibitory zone (GIZ)
# in vitro [11] = details: human
# M. luteus ATCC 10240 [12] = experiment: MIC, twofold serial agar dilution; format: cell-based; details: Micrococcus luteus, ATCC10240, 18 h, 35 °C, read-out: minimal inhibitory concentrations (MIC)
# B. cereus ATCC 11778 [13] = experiment: disc diffusion method; format: cell-based, Bacillus cereus; details: Bacillus cereus, ATCC11778, applied 400 µg per disc, dash = lack of the growth inhibition area, read-out: diameter of growth inhibitory zone (GIZ)
# B. subtilis ATCC 6633 [14] = experiment: MIC, twofold serial agar dilution; format: cell-based; details: Bacillus subtilis, ATCC6633, 18 h, 35 °C, read-out: minimal inhibitory concentrations (MIC)
# M. luteus ATCC 9341 [15] = experiment: MIC, twofold serial agar dilution; format: cell-based; details: Micrococcus luteus, ATCC9341, 18 h, 35 °C, read-out: minimal inhibitory concentrations (MIC)
# B. subtilis ATCC 6633 [16] = experiment: disc diffusion method; format: cell-based, Bacillus subtilis; details: Bacillus subtilis, ATCC6633, applied 400 µg per disc, dash = lack of the growth inhibition area, read-out: diameter of growth inhibitory zone (GIZ)
# M. luteus ATCC 9341 [17] = experiment: disc diffusion method; format: cell-based, Micrococcus luteus; details: Micrococcus luteus, ATCC9341, applied 400 µg per disc, dash = lack of the growth inhibition area, read-out: diameter of growth inhibitory zone (GIZ)
# S. aureus ATCC 25923 [18] = experiment: MIC, twofold serial agar dilution; format: cell-based; details: Staphylococcus aureus, ATCC25923, 18 h, 35 °C, read-out: minimal inhibitory concentrations (MIC)
# in vitro [19] = details: Syrian hamster (Mesocricetus auratus)
# S. aureus ATCC 6538 [20] = experiment: MIC, twofold serial agar dilution; format: cell-based; details: Staphylococcus aureus, ATCC6538, 18 h, 35 °C, read-out: minimal inhibitory concentrations (MIC)
# S. epidermidis (MRSE) = experiment: MIC against hospital strains; details: Staphylococcus epidermidis
# S. aureus ATCC 25923 [21] = experiment: disc diffusion method; format: cell-based, Staphylococcus aureus; details: Staphylococcus aureus, ATCC25923, applied 400 µg per disc, dash = lack of the growth inhibition area, read-out: diameter of growth inhibitory zone (GIZ)
# S. aureus NCTC 4163 [22] = experiment: MIC, twofold serial agar dilution; format: cell-based; details: Staphylococcus aureus, NCTC4163, 18 h, 35 °C, read-out: minimal inhibitory concentrations (MIC)
compound,measurement,setting,value
"Cc1ccc(NC(=S)NCCc2c[nH]c3ccccc23)cc1 [Compound 3, 1-(2-(1H-Indol-3-yl)ethyl)-3-(4-methylphenyl)thiourea]",EC50,HSV-1,> 75 µM
same,EC50,Reo-1,> 16 µM
same,EC50,HIV-1,> 33 µM
same,EC50,VSV,> 75 µM
same,EC50,YFV,> 16 µM
same,CC50,"Cytotoxicity, MTT method [1]",33 µM
same,activity against RSV (in words),RSV,moderately active
same,EC50,RSV,20 ± 3 µM
same,CC50,"Cytotoxicity, MTT method [2]",75 µM
same,EC50,CV-B5,> 75 µM
same,EC50,VV,> 75 µM
same,EC50,BVDV,≥ 100 µM
same,CC50,"Cytotoxicity, MTT method [3]",> 100 µM
same,EC50,Sb-1,> 75 µM
same,CC50,"Cytotoxicity, MTT method [4]",16 µM
"C[C@@]1(O)[C@H](O)[C@@H](CO)O[C@H]1n1cnc2c(=O)[nH]c(N)nc21 [2′-C-methyl-guanosine, 2′-C-methylguanosine, reference compound]",EC50,YFV,1.9 ± 0.1 µM
same,EC50,BVDV,1.1 ± 0.1 µM
same,CC50,"Cytotoxicity, MTT method [3]",> 10 µM
same,CC50,"Cytotoxicity, MTT method [4]",> 10 µM
"C=C(C)CNC(=S)NCCc1c[nH]c2ccccc12 [Compound 19, 1-(2-(1H-Indol-3-yl)ethyl)-3-(2-methylallyl)thiourea]",EC50,HSV-1,> 89 µM
same,EC50,Reo-1,> 35 µM
same,EC50,HIV-1,> 100 µM
same,MIC,B. cereus ATCC 11778 [5],200 µg/mL
same,EC50,VSV,> 89 µM
same,CC50,in vitro [6],> 100 µM
same,zone of inhibition at 400 µg/disc,M. luteus ATCC 10240 [7],14 mm
same,zone of inhibition at 400 µg/disc,S. aureus ATCC 6538 [8],11 mm
same,EC50,YFV,> 35 µM
same,CC50,in vitro [9],89 µM
same,EC50,RSV,> 89 µM
same,zone of inhibition at 400 µg/disc,S. aureus NCTC 4163 [10],12 mm
same,CC50,in vitro [11],> 100 µM
same,MIC,M. luteus ATCC 10240 [12],50 µg/mL
same,zone of inhibition at 400 µg/disc,B. cereus ATCC 11778 [13],13 mm
same,EC50,CV-B5,> 89 µM
same,EC50,VV,> 89 µM
same,MIC,B. subtilis ATCC 6633 [14],400 µg/mL
same,MIC,M. luteus ATCC 9341 [15],200 µg/mL
same,zone of inhibition at 400 µg/disc,B. subtilis ATCC 6633 [16],13 mm
same,zone of inhibition at 400 µg/disc,M. luteus ATCC 9341 [17],13 mm
same,melting point,,141 to 143 °C
same,MIC,S. aureus ATCC 25923 [18],400 µg/mL
same,CC50,in vitro [19],35 µM
same,MIC,S. aureus ATCC 6538 [20],200 µg/mL
same,EC50,BVDV,≥ 100 µM
same,EC50,Sb-1,> 89 µM
same,MIC,S. epidermidis (MRSE); hospital S. epidermidis MRSE strain 430/11,12.5 µg/mL
same,MIC,S. epidermidis (MRSE); hospital S. epidermidis MRSE strain 431/11,100 µg/mL
same,MIC,S. epidermidis (MRSE); hospital S. epidermidis MRSE strain 432/11,12.5 µg/mL
same,MIC,S. epidermidis (MRSE); hospital S. epidermidis MRSE strain 433/11,50 µg/mL
same,MIC,S. epidermidis (MRSE); hospital S. epidermidis MRSE strain 434/11,12.5 µg/mL
same,MIC,S. epidermidis (MRSE); hospital S. epidermidis MRSE strain 435/11,50 µg/mL
same,MIC,S. epidermidis (MRSE); hospital S. epidermidis MRSE strain 436/11,100 µg/mL
same,MIC,S. epidermidis (MRSE); hospital S. epidermidis MRSE strain 437/11,200 µg/mL
same,MIC,S. epidermidis (MRSE); hospital S. epidermidis MRSE strain 438/11,100 µg/mL
same,MIC,S. epidermidis (MRSE); hospital S. epidermidis MRSE strain 439/11,50 µg/mL
same,zone of inhibition at 400 µg/disc,S. aureus ATCC 25923 [21],12 mm
same,MIC,S. aureus NCTC 4163 [22],400 µg/mL
"O=c1cnn([C@@H]2O[C@H](CO)[C@@H](O)[C@H]2O)c(=O)[nH]1 [6-Aza-uridine, 6-azauridine, reference compound]",EC50,RSV,1.4 ± 0.06 µM
same,CC50,"Cytotoxicity, MTT method [2]",12 µM
